≈ marks a conversion by molar mass, not a printed value. Where “and” joins values, the source holds several entries; their conditions need not be identical. Identical values can stand only once. Where only a bound is given, the exact number is not on record here.

The term MIC denotes the lowest concentration that inhibits growth of the organism.

Some test systems named below: Proteus mirabilis; Streptococcus pyogenes; Pseudomonas aeruginosa.
Holding throughout (test): ≥ marks a high value that may be exact or a test limit, other limits are often not marked, values filed in µg/mL are converted to µM
Assay [1] concerns Staphylococcus aureus ATCC 25923.
Assay [2] relates to Micrococcus luteus ATCC 10240.
For assay [3], the system named is Escherichia coli ATCC 25922.
The subject of assay [4] is Bacillus subtilis ATCC 6633.
Assay [5] concerns Candida albicans ATCC 90112.
Assay [6] concerns Staphylococcus epidermidis.
In assay [7] the test system is Pseudomonas aeruginosa ATCC 27853.
For assay [8], the system named is Stenotrophomonas maltophilia ATCC 13637.
The subject of assay [9] is Staphylococcus aureus KO-4.
Assay [10] concerns Trichophyton mentagrophytes IFO 5466.
Assay [11] relates to Trypanosoma brucei brucei GUT Tat3.1.
For assay [12], the system named is Shigella dysenteriae ATCC 9752.
Assay [13] deals with Salmonella enterica subsp. enterica serovar Typhimurium ATCC 14028.
The subject of assay [14] is Staphylococcus epidermidis ATCC 12228.
Assay [15] relates to Klebsiella pneumoniae ATCC 10031.
In assay [16] the test system is Staphylococcus aureus ATCC 6538P.
The subject of assay [17] is Staphylococcus aureus TK784.
Assay [18] concerns Micrococcus luteus ATCC 9341.
Assay [19] deals with Candida albicans ATCC 36232.
The test system of assay [20] is Staphylococcus aureus ATCC 6538.
Assay [21] deals with Salmonella enterica subsp. enterica serovar Enteritidis ATCC 13076.
Assay [22] has as its system Escherichia coli ATCC 27325.
The test system of assay [23] is Pseudomonas putida ATCC 17426.
The subject of assay [24] is Candida albicans ATCC 10231.
For assay [25], the system named is Bacillus subtilis ATCC 62037.
The subject of assay [26] is Staphylococcus aureus ATCC 15752.
In assay [27] the test system is Streptococcus mutans ATCC 25175.
For assay [28], the system named is Cryptococcus neoformans ATCC 34881.
Assay [29] has as its system Saccharomyces cerevisiae ATCC 44774.
Assay [30] deals with Klebsiella pneumoniae NCTC 13368.
Assay [31] concerns Salmonella typhimurium KCTC 1926.
Assay [32] deals with Escherichia coli KCTC 1682.
In assay [33] the test system is Pseudomonas aeruginosa KCTC 1637.
Assay [34] has as its system Acinetobacter baumannii ATCC 17978.
Assay [35] concerns Pseudomonas aeruginosa NCTC 13437.
Assay [36] deals with Staphylococcus epidermidis KCTC 1917.
Assay [37] concerns Staphylococcus aureus ATCC 9144.
In assay [38] the test system is Staphylococcus aureus USA 300.
Assay [39] deals with Staphylococcus aureus KCTC 1621.
Assay [40] relates to Staphylococcus aureus CCARM 3001.
For assay [41], the system named is Pseudomonas aeruginosa PAO1.
Assay [42] has as its system Escherichia coli NCTC 12923.
The test system of assay [43] is Pseudomonas aeruginosa CCARM 2095.
Assay [44] concerns Staphylococcus aureus CCARM 3543.

As for `CC[C@H](C)[C@H](NC(=O)CNC(=O)[C@H](CCSC)NC(=O)[C@@H](NC(=O)[C@H](CC(=O)O)NC(=O)[C@@H](N)Cc1ccccc1)C(C)C)C(=O)N[C@H](C(=O)N[C@@H](CCCCN)C(=O)N[C@@H](CCCCN)C(=O)N[C@H](C(=O)N[C@@H](C)C(=O)N[C@@H](CO)C(=O)N[C@@H](C)C(=O)N[C@@H](CC(C)C)C(N)=O)[C@@H](C)CC)[C@@H](C)CC` [FDVMGIIKKIASAL], the MIC is at least 60 µM in the assay with Proteus mirabilis; 30 µM (≈ 45.1 µg/mL) in [1]; 30 µM (≈ 45.1 µg/mL) in assay [2]; 30 µM (≈ 45.1 µg/mL) against Streptococcus pyogenes; 30 µM (≈ 45.1 µg/mL) in assay [3]; 30 µM (≈ 45.1 µg/mL) in assay [4]. Further, the MIC in assay [5] was 7.5 µM (≈ 11.3 µg/mL); in assay [6], 30 µM (≈ 45.1 µg/mL); in assay [7], above 30 µM; in [8], 30 µM (≈ 45.1 µg/mL).
`CC[C@H](C)[C@H](NC(=O)[C@H](CCCN=C(N)N)NC(=O)[C@H](CC(C)C)NC(=O)[C@H](Cc1ccc(O)cc1)NC(=O)[C@H](CC(C)C)NC(=O)[C@@H](N)CCCN=C(N)N)C(=O)NCC(=O)N[C@@H](CCCN=C(N)N)C(=O)N[C@@H](CCCN=C(N)N)C(N)=O` [RLYLRIGRR]: the MIC in assay [9] is at least 499 µM; in [10], 20.8 µM (≈ 25 µg/mL); in assay [11], at least 205 µM; against Pseudomonas aeruginosa, 333 µM (≈ 400 µg/mL).
On to `CC(C)C[C@H](NC(=O)[C@H](Cc1c[nH]c2ccccc12)NC(=O)[C@H](CCCCN)NC(=O)[C@H](CCCCN)NC(=O)[C@H](CC(C)C)NC(=O)[C@H](Cc1c[nH]c2ccccc12)NC(=O)[C@H](CCCCN)NC(=O)[C@H](CCCCN)NC(=O)[C@@H](N)CC(C)C)C(=O)N[C@@H](CCCCN)C(=O)N[C@@H](CCCCN)C(N)=O` [LKKWLKKWLKK], for which the MIC in [2] is 26.7 µM (≈ 40 µg/mL); in [12], at least 53.4 µM; in [13] it was above 53.4 µM; in assay [14], 26.7 µM (≈ 40 µg/mL); in assay [15], at least 53.4 µM; in [3], 13.3 µM (≈ 20 µg/mL). Further, the minimum inhibitory concentration (MIC) in [16] is 6.67 µM (≈ 9.99 µg/mL); in assay [17], at least 53.4 µM; in assay [4], 13.3 µM (≈ 20 µg/mL); in assay [7], 26.7 µM (≈ 40 µg/mL).
With `CC(C)[C@H](NC(=O)[C@H](CCCCN)NC(=O)[C@H](Cc1ccccc1)NC(=O)[C@@H](NC(=O)[C@@H](NC(=O)[C@H](CCCCN)NC(=O)[C@H](CCCCN)NC(=O)[C@@H](N)CCCCN)C(C)C)C(C)C)C(=O)N[C@@H](CCCCN)C(=O)N[C@@H](Cc1ccccc1)C(=O)N[C@@H](CCCCN)C(=O)N[C@@H](CCCCN)C(N)=O` [KKKVVFKVKFKK], the minimal inhibitory concentration (MIC) in assay [18] is 2.08 µM (≈ 3.13 µg/mL); in [19], 4.15 µM and 2.08 µM; in [20], 2.08 µM (≈ 3.13 µg/mL).
As for `CC(C)[C@H](NC(=O)[C@H](CCCCN)NC(=O)CNC(=O)CNC(=O)[C@H](CCC(N)=O)NC(=O)[C@H](CCCCN)NC(=O)CNC(=O)[C@H](CCCN=C(N)N)NC(=O)CNC(=O)[C@H](C)N)C(=O)N[C@@H](CCCN=C(N)N)C(=O)N[C@@H](C)C(=O)N[C@@H](CCCCN)C(=O)N[C@@H](C)C(=O)N[C@@H](CCCCN)C(=O)N[C@H](C(=O)N[C@@H](CCCN=C(N)N)C(=O)N[C@@H](CO)C(=O)N[C@@H](CO)C(=O)O)[C@@H](C)O` [AGRGKQGGKVRAKAKTRSS], the minimal inhibitory concentration (MIC) was found to be 8.23 µM (≈ 16 µg/mL) in assay [21]; 2.06 µM (≈ 4 µg/mL) in assay [22]; 2.06 µM (≈ 4 µg/mL) in [23]; 8.23 µM (≈ 16 µg/mL) in assay [24]; 4.12 µM (≈ 8 µg/mL) in [25]; 8.23 µM (≈ 16 µg/mL) in [26]. For the same molecule, the figures for the MIC in assay [27], in assay [28] and in [29] were 8.23 µM (≈ 16 µg/mL), 4.12 µM (≈ 8 µg/mL) and 4.12 µM (≈ 8 µg/mL), respectively.
Consider `CC[C@H](C)[C@H](N)C(=O)N[C@@H](CC(C)C)C(=O)NCC(=O)N[C@@H](CCCCN)C(=O)N[C@H](C(=O)N[C@@H](Cc1c[nH]c2ccccc12)C(=O)N[C@@H](CCCCN)C(=O)N1CCC[C@H]1C(=O)N[C@H](C(=O)N[C@@H](CCCCN)C(=O)N[C@@H](CCCCN)C(=O)N[C@@H](CC(C)C)C(=O)N[C@@H](Cc1ccccc1)C(N)=O)[C@@H](C)CC)[C@@H](C)CC` [ILGKIWKPIKKLF], for which the MIC in assay [30] was at least 40.4 µM; in assay [31], 1 µM (≈ 1.58 µg/mL); in assay [32], 2 µM (≈ 3.17 µg/mL); in assay [33] it was 2 µM (≈ 3.17 µg/mL); in assay [34] it was 5.05 µM (≈ 8 µg/mL); in assay [35] it was at least 40.4 µM. Further, the MIC in [36] was 1 µM (≈ 1.58 µg/mL); in [37] it was 5.05 µM (≈ 8 µg/mL); in assay [38], at least 40.4 µM; in assay [39], 2 µM (≈ 3.17 µg/mL); in assay [40], 1 µM (≈ 1.58 µg/mL); in [41], above 80.8 µM. Moreover, the figures for the MIC in assay [42], in [43] and in assay [44] were 10.1 µM (≈ 16 µg/mL), 1 µM (≈ 1.58 µg/mL) and 0.5 µM (≈ 0.792 µg/mL), respectively.

The record behind these values is DBAASP.
